Entries after “also recorded” stand apart in the source; their conditions may differ. Where a SMILES comes first, the peptide text is derived from it.
Tests used:
Format in all cases: physicochemical
[1] = Reversed-phase HPLC retention time as measure of lipophilicity; details: 15-min gradient from 5% MeCN/H2O to 95% MeCN/H2O with 0.1% formic acid, longer time = more lipophilic
From the text: Reversed‐phase HPLC retention times have proven to be a useful metric in determining the permeability of peptide macrocycles, as longer retention times typically equate to lower aqueous solubility, lower polarity, and increased lipophilicity.^[ [34], [35], [36], [37] ^] We were keen to use these HPLC retention times as a tool to assess the modulation of lipophilicity of the pseudo‐ring‐containing macrocycles. At the same time, we were interested in collecting solubility measurements for each macrocycle in both organic solvents (DMSO) as well as in water by visually determining each macrocycle's solubility. Our analysis began with the proteinogenic peptides 8 and 9 (Figure 6a). From the NMR studies, we recognized that these peptides had extremely poor solubility in d6 ‐DMSO (Figure 6c). […] HPLC analysis of these peptides confirmed that proteinogenic sequences correspond to extremely polar peptides. On a 15‐min HPLC gradient (from 5% MeCN/H2O to 95% MeCN/H2O with 0.1% formic acid), macrocycles 8 and 9 had HPLC retention times of 5.3 min and 4.8 min, respectively. Both 8 and 9 contain similar hydrogen bonding patterns, which is reflected in their similar hydrophilicities and HPLC retention times. Similar results were obtained with peptides 10 and 11 (Figure 6a). […]

[2] = Solubility in DMSO / organic solvents, determined visually; details: room temperature, concentration of 10 mg/mL (ca. 10 mg/mL for NMR)
From the text: We considered building blocks 1–3 as Fmoc‐protected pseudo‐ring building blocks that could be implemented into the Fmoc SPPS approach. The building block 1 was readily prepared from 3‐methyl SA (see Supporting Information). […] The building block 3 was made from commercially available 7‐carboxyindole over seven steps. This procedure was scalable and required no chromatographic purifications (see Supporting Information). With 1 and 3 in hand, we turned our attention towards their application in SPPS. […] Through cyclization of the linear pentafluorophenol (PFP) ester at high dilution in DMF with DIPEA, cyclic peptides 4 (25% overall yield) and 5 (28% overall yield) were obtained from building block 1. The cyclic peptides 6 (17% overall yield) and 7 (21% overall yield) were prepared from building block 3 (Figure 3a,b). At the same time, we synthesized cyclic peptide controls devoid of the pseudo‐ring core through a conventional Fmoc SPPS strategy (Figure 3c) with a Gly‐Gly in place of the pseudo‐ring scaffold. Similarly, we prepared peptides 10 and 11, which represent depeptidized homodetic sequences that contain a backbone‐embedded arene that lacks the X─H pseudo‐ring hydrogen bond donor (Figure 3c). To draw further comparison between pseudo‐ring‐containing and regular heterocycle‐containing peptides, we attempted to synthesize the indole‐containing analogues of peptides 6 and 7 (see Supporting Information). […] During the preparation of cyclic peptides 4–11, we noticed that macrocycles devoid of a pseudo‐ring were frustratingly insoluble in all organic solvents as well as in water. As result, these peptides (8–11) were purified by hot trituration in methanol/water. The solubilities/lipophilicities of peptides 4–11 will be discussed later in this paper. […]
Reversed‐phase HPLC retention times have proven to be a useful metric in determining the permeability of peptide macrocycles, as longer retention times typically equate to lower aqueous solubility, lower polarity, and increased lipophilicity.^[ [34], [35], [36], [37] ^] We were keen to use these HPLC retention times as a tool to assess the modulation of lipophilicity of the pseudo‐ring‐containing macrocycles. At the same time, we were interested in collecting solubility measurements for each macrocycle in both organic solvents (DMSO) as well as in water by visually determining each macrocycle's solubility. Our analysis began with the proteinogenic peptides 8 and 9 (Figure 6a). From the NMR studies, we recognized that these peptides had extremely poor solubility in d6 ‐DMSO (Figure 6c). […] HPLC analysis of these peptides confirmed that proteinogenic sequences correspond to extremely polar peptides. On a 15‐min HPLC gradient (from 5% MeCN/H2O to 95% MeCN/H2O with 0.1% formic acid), macrocycles 8 and 9 had HPLC retention times of 5.3 min and 4.8 min, respectively. Both 8 and 9 contain similar hydrogen bonding patterns, which is reflected in their similar hydrophilicities and HPLC retention times. Similar results were obtained with peptides 10 and 11 (Figure 6a). […] We were keen to decipher whether the inclusion of either “open” or “closed” pseudo‐ring residues could lead to noticeable solubility and lipophilicity differences. […] This increase in […] likely results from the now exposed polar phenolic OH group paired with the disrupted IMHB networks that were present within the backbone of 4. […] With this in mind, we began analyzing our dicarbonyl‐containing macrocycles 6 and 7. […] Similarly, this marks the first instance in which we have been able to access a class of macrocycles with chameleonic behavior whereby we can reliably access both “open” and “closed” forms using pseudo‐rings. […] Unique to this series of macrocycles, the “open” pseudo‐ring macrocycle 7 is extremely hydrophilic.

[3] = Solubility in water, determined visually; details: concentration of 10 mg/mL
From the text: We considered building blocks 1–3 as Fmoc‐protected pseudo‐ring building blocks that could be implemented into the Fmoc SPPS approach. The building block 1 was readily prepared from 3‐methyl SA (see Supporting Information). […] The building block 3 was made from commercially available 7‐carboxyindole over seven steps. This procedure was scalable and required no chromatographic purifications (see Supporting Information). With 1 and 3 in hand, we turned our attention towards their application in SPPS. […] Through cyclization of the linear pentafluorophenol (PFP) ester at high dilution in DMF with DIPEA, cyclic peptides 4 (25% overall yield) and 5 (28% overall yield) were obtained from building block 1. The cyclic peptides 6 (17% overall yield) and 7 (21% overall yield) were prepared from building block 3 (Figure 3a,b). At the same time, we synthesized cyclic peptide controls devoid of the pseudo‐ring core through a conventional Fmoc SPPS strategy (Figure 3c) with a Gly‐Gly in place of the pseudo‐ring scaffold. Similarly, we prepared peptides 10 and 11, which represent depeptidized homodetic sequences that contain a backbone‐embedded arene that lacks the X─H pseudo‐ring hydrogen bond donor (Figure 3c). […]

| SMILES | HPLC retention time [1] [min] | Solubility in DMSO (d6-DMSO) [2] | Solubility in H2O [3] |
| --- | --- | --- | --- |
| CC[C@H](C)[C@@H]1NC(=O)c2cccc(c2O)CNC(=O)[C@H](Cc2ccccc2)NC(=O)CNC(=O)[C@H](C)NC1=O [compound 4] (HELM PEPTIDE1{A.G.F.[O=C(c1cccc(CN[*:1])c1O)[*:2]].I}$PEPTIDE1,PEPTIDE1,1:R1-5:R2$$$V2.0) | 7.7 | readily soluble; also recorded: much more soluble in DMSO than their non‐pseudo‐ring counterparts | – |
| C[C@@H]1NC(=O)[C@@H]2CCCN2C(=O)c2cccc(c2N)C(=O)CNC(=O)[C@H](Cc2ccccc2)NC(=O)CNC1=O [compound 7] (HELM PEPTIDE1{A.G.F.[Nc1c(C(=O)CN[*:1])cccc1C(=O)[*:2]].P}$PEPTIDE1,PEPTIDE1,1:R1-5:R2$$$V2.0) | – | highly soluble | highly soluble |
| C[C@@H]1NC(=O)[C@@H]2CCCN2C(=O)c2cccc(c2O)CNC(=O)[C@H](Cc2ccccc2)NC(=O)CNC1=O [compound 5] (HELM PEPTIDE1{A.G.F.[O=C(c1cccc(CN[*:1])c1O)[*:2]].P}$PEPTIDE1,PEPTIDE1,1:R1-5:R2$$$V2.0) | – | readily soluble; also recorded: much more soluble in DMSO than their non‐pseudo‐ring counterparts | – |
| CC[C@H](C)[C@@H]1NC(=O)CNC(=O)CNC(=O)[C@H](Cc2ccccc2)NC(=O)CNC(=O)[C@H](C)NC1=O [compound 8] (HELM PEPTIDE1{A.G.F.G.G.I}$PEPTIDE1,PEPTIDE1,1:R1-6:R2$$$V2.0) | 5.3 | could not be fully solubilized | – |
| CC[C@H](C)[C@@H]1NC(=O)c2cccc(c2N)C(=O)CNC(=O)[C@H](Cc2ccccc2)NC(=O)CNC(=O)[C@H](C)NC1=O [compound 6] (HELM PEPTIDE1{A.G.F.[Nc1c(C(=O)CN[*:1])cccc1C(=O)[*:2]].I}$PEPTIDE1,PEPTIDE1,1:R1-5:R2$$$V2.0) | – | highly soluble | – |
| CC[C@H](C)[C@@H]1NC(=O)c2cccc(c2)CNC(=O)[C@H](Cc2ccccc2)NC(=O)CNC(=O)[C@H](C)NC1=O [compound 10] (HELM PEPTIDE1{[O=C(c1cccc(CN[*:1])c1)[*:2]].I.A.G.F}$PEPTIDE1,PEPTIDE1,1:R1-5:R2$$$V2.0) | – | poorly soluble | – |
| C[C@@H]1NC(=O)[C@@H]2CCCN2C(=O)c2cccc(c2)CNC(=O)[C@H](Cc2ccccc2)NC(=O)CNC1=O [compound 11] (HELM PEPTIDE1{[O=C(c1cccc(CN[*:1])c1)[*:2]].P.A.G.F}$PEPTIDE1,PEPTIDE1,1:R1-5:R2$$$V2.0) | – | could be solubilized in d6 ‐DMSO at room temperature only after sonication | – |
| C[C@@H]1NC(=O)[C@@H]2CCCN2C(=O)CNC(=O)CNC(=O)[C@H](Cc2ccccc2)NC(=O)CNC1=O [compound 9] (HELM PEPTIDE1{A.G.F.G.G.P}$PEPTIDE1,PEPTIDE1,1:R1-6:R2$$$V2.0) | – | could not be fully solubilized | – |
